The target of assay [1] is IL-17A(FLAG-tagged): IL-17RA(His-tagged) (Homo sapiens, UniProt Q16552, K93Q). The assay is described as follows: IL-17A(FLAG-tagged): IL-17RA(His-tagged) binding disruption Eu-HTRF assay. The note with it: class of the average IC50 where tested more than once. In a few lines: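 Compound (22-point, 2-fold series) was pre-incubated 1 h at rt with FLAG-IL-17A, added as a 2× solution (1 μM). A 2× mix of C-terminal 10×His IL-17RA, Eu-anti-FLAG donor and D2-anti-His acceptor in PBS/0.01% Triton X-100/200 mM KF was then added for 2 h at rt. The 665/615 nm ratio was fitted to one-site competition for IC50.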
Chain of UniProt Q16552 (Q16552 with tags, fused parts or gaps K93Q): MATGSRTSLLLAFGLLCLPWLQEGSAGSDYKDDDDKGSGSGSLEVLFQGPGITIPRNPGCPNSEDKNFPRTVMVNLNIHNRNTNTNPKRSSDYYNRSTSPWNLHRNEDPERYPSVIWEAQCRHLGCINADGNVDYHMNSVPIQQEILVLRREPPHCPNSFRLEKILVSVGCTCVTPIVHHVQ
For orientation: Time-resolved FRET reads energy transfer from a long-lived donor to a nearby acceptor.

The subject of assay [2] is IL-17A-induced G-CSF production in human normal keratinocyte (NHK). The assay is described as follows: NHK assay: IL-17A-induced G-CSF production in normal human keratinocytes. It is filed as cell-based. The note with it: IL-17A 5 ng/mL, 24 h, class of the average IC50 where tested more than once. In a few lines: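 Adult keratinocytes at 3000-4000 cells/well; recombinant human IL-17A pre-incubated 1 h at rt with titrated compound, then added to cells (final 5 ng/mL IL-17A, 0.2% DMSO, 5% FBS) for 24 h at 37 °C. Supernatant G-CSF quantified by HTRF against a standard curve to give IC50; viability checked by CellTiter-Glo versus DMSO.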

Turning to `O=C(N[C@H](c1cn2ncc(CC3CC(F)(F)CNC3=O)cc2n1)C1CCC(F)(F)CC1)c1nonc1C1CC1` (single isomer, unassigned) [Example 2, 4-Cyclopropyl-N—((S)-(7-(((S*)-5,5-difluoro-2-oxopiperidin-3-yl)methyl)imidazo[1,2-b]pyridazin-2-yl)(4,4-difluorocyclohexyl)methyl)-1,2,5-oxadiazole-3-carboxamide], the figures for the IC50 in assay [1] and in assay [2] were 0.4 to 4 µM and greater than 4 µM, respectively.

As for `COc1nonc1C(=O)N[C@@H](CCC(C)(C)C(F)(F)F)c1cn2ncc(CC3C[C@@H](C(F)(F)F)NC3=O)cc2n1` (single isomer, unassigned) [Example 5, 4-Methoxy-N-[(1S)-5,5,5-trifluoro-4,4-dimethyl-1-[7-[[(3R*,5S)-2-oxo-5-(trifluoromethyl)pyrrolidin-3-yl]methyl]imidazo[1,2-b]pyridazin-2-yl]pentyl]-1,2,5-oxadiazole-3-carboxamide], the IC50 in assay [1] and in assay [2] was greater than 4 µM each time.

As to `COc1nonc1C(=O)N[C@@H](CCC(C)(C)C(F)(F)F)c1cn2ncc(CC3C[C@@H](C(F)(F)F)NC3=O)cc2n1` (single isomer, unassigned) [Example 6, 4-Methoxy-N-[(1S)-5,5,5-trifluoro-4,4-dimethyl-1-[7-[[(3S*,5S)-2-oxo-5-(trifluoromethyl)pyrrolidin-3-yl]methyl]imidazo[1,2-b]pyridazin-2-yl]pentyl]-1,2,5-oxadiazole-3-carboxamide], the IC50 in assay [1] and in assay [2] was less than 0.4 µM in each case.

On to `COc1nonc1C(=O)N[C@H](c1cn2ncc(CC3C[C@@H](C(F)(F)F)NC3=O)cc2n1)C1CCC(F)(F)CC1` (single isomer, unassigned) [Example 7, N—[(S)-(4,4-Difluorocyclohexyl)-[7-[[(3R*,5S)-2-oxo-5-(trifluoromethyl)pyrrolidin-3-yl]methyl]imidazo[1,2-b]pyridazin-2-yl]methyl]-4-methoxy-1,2,5-oxadiazole-3-carboxamide], for which the IC50 in assay [1] and in assay [2] was less than 0.4 µM throughout.

For the molecule `COc1nonc1C(=O)N[C@H](c1cn2ncc(CC3C[C@@H](C(F)(F)F)NC3=O)cc2n1)C1CCC(F)(F)CC1` (single isomer, unassigned) [Example 8, N—((S)-(4,4-Difluorocyclohexyl)(7-(((3S*,5S)-2-oxo-5-(trifluoromethyl)pyrrolidin-3-yl)methyl)imidazo[1,2-b]pyridazin-2-yl)methyl)-4-methoxy-1,2,5-oxadiazole-3-carboxamide], the IC50 in assay [1] and in assay [2] was greater than 4 µM in each case.

`Cc1nonc1C(=O)N[C@H](c1cn2ncc(CC3C[C@@H](C(F)(F)F)NC3=O)cc2n1)C1CCC(F)(F)CC1` (single isomer, unassigned) [Example 9, N—[(S)-(4,4-Difluorocyclohexyl)-[7-[[(3S*,5S)-2-oxo-5-(trifluoromethyl)pyrrolidin-3-yl]methyl]imidazo[1,2-b]pyridazin-2-yl]methyl]-4-methyl-1,2,5-oxadiazole-3-carboxamide]: the IC50 in assay [1] and in assay [2] was less than 0.4 µM in each case.

On to `Cc1nonc1C(=O)N[C@H](c1cn2ncc(CC3C[C@@H](C(F)(F)F)NC3=O)cc2n1)C1CCC(F)(F)CC1` (single isomer, unassigned) [Example 10, N—[(S)-(4,4-Difluorocyclohexyl)-[7-[[(3R*,5S)-2-oxo-5-(trifluoromethyl)pyrrolidin-3-yl]methyl]imidazo[1,2-b]pyridazin-2-yl]methyl]-4-methyl-1,2,5-oxadiazole-3-carboxamide], for which the IC50 in assay [1] and in assay [2] was greater than 4 µM throughout.

For the molecule `O=C(N[C@H](c1cn2ncc(C[C@@]34CCC[C@H](C3)NC4=O)cc2n1)C1CCC(F)(F)CC1)c1nonc1C1CC1` (single isomer, unassigned) [Example 11], the 50% inhibitory concentration (IC50) (in general, the midpoint of a concentration-inhibition curve) in assay [1] is less than 0.4 µM; in assay [2] (Homo sapiens, Keratinocyte), less than 0.4 µM.

For the origin of these results see patent publication US20260258048A1, “LACTAM-CONTAINING IMIDAZOPYRIDAZINE IL-17 INHIBITOR COMPOUNDS” (Janssen Pharmaceutica NV, priority 2023, published 2026).
